The test system of the assay is HIV-1 (isolated standard virus Z2Z6) in PM1 cells. Kind of assay: Anti-HIV evaluation in HIV-1-infected PM1 lymphocytic cell culture, cell viability read by MTT technique. Type of assay: cell-based. The conditions noted are these: 10^4 cells/well, infected with HIV-1 isolate Z2Z6 at MOI 0.002, MTT cellular viability on 6th day after infection, cut-off 50% of emission of uninfected cells. How it is done: The pharmacological evaluation of the derivatives obtained was undertaken using test plates with a PM1 strain cell culture, lymphocytic strain established in culture, expressing the receptors CD4+ and co-receptors C5 and R4 of the HIV-1 and producers of syncytium, incubated with isolated standard virus Z2Z6 purified by passage in cell culture PM-1, having a titer of 3.96×10^2 TCID50/ml. The infection was accomplished by using plates having 96 wells, each containing 10^4 cells/well, infected with a MOI (Multiplicity Of Infection) of 0.002. The compounds being evaluated were initially diluted in dimethylsulphoxide (DMSO) to a final concentration of 10 mM and subsequently diluted in base medium RPMI 1640 to 20 μM.
Nine wells of the cells infected initially with the isolated HIV Z6 were exposed to decreasing concentrations of the compounds at 20 μM by a factor of 2 (base log 2). The culture medium employed was the RPMI 1640, added with 10% bovine foetal serum, antibiotics […]/penicilyne and L-glutamine.
The last and tenth well was kept as a control of the infection, without the presence of the drug blank. Each line of ten wells was produced in triplicate, for posterior statistical analysis. INDINAVIR was used as control, in the same dilutions as the compounds being tested. Cytotoxic analysis was carried out on a fourth set of 10 (ten) wells with cells by applying the compounds of the present invention diluted as described hereinabove. The plates were kept in an oven with 5% CO2, at a temperature of 37° C. and verified daily by optical phase microscopy for the analysis of the occurance of syncytia, which was confirmed on the 4th day after infection.
The results were analysed using a Microsoft Excel matrix, with correction of the blanks, and plotting of the emission frequency graph of the assay (in percentage, using as the 100% standard the emission from the viable cells of the wells without infection) as measurement of cellular viability. The value of 50% of emission of the standard was considered as cut-off point for the IC50 calculation. This value was attained, after plotting on the graph of the logarithmic regression curve equation, the points obtained from the IC curve prior to the formation of the plateau of the curve.

Read-outs that look alike come from different tables or passages of the source. Bounds are passed on as bounds.

On to “1,4-di(benzylamine)-(2S,3S)-butane-2,3-diol [Compound 2a]”, for which, for the setting “read-out: IC50”, the IC50 (as a rule, the concentration at which inhibition is half-maximal) was more than 100 µM. In the case of “1N,4N-di[1-carbetoxy-2-(1H-3-indoyl)-(1S)-ethyl]-2,3-dihydroxy-(2S,3S)-butanediamide [Compound 3g]”, the IC50 (read-out: IC50) is more than 100 µM. For the molecule “1N,4N-di[1-carbetoxy-2-methyl-(1S)-propyl]-2,3-dihydroxy-(2S,3S)-butanediamide [Compound 3b]”, the IC50 (read-out: IC50) was more than 100 µM. On to “1N,4N-di[1-carbetoxy-2-phenyl-(1S)-ethyl]-2,3-dihydroxy-(2S,3S)-butanediamide [Compound 3e]”, for which the IC50 (read-out: IC50) is more than 100 µM. Same read-out and setting: next, “1N,4N-di[1-carbetoxy-3-methyl-(1S)-butyl]-2,3-dihydroxy-(2S,3S)-butanediamide [Compound 3c]”: 10 µM. As to “1N,4N-di[2-(4-hydroxyphenyl)-1-carbetoxy-1-(1S)-ethyl]-2,3-dihydroxy-(2S,3S)-butanediamide [Compound 3f]”, the IC50 (read-out: IC50) is 50 µM. The same measure, in the same setting: next, “1N,4N-di[-carbetoxy-2-phenyl-(1S)-ethyl]-2,3-diacetoxy-(2S,3S)-butanediamide [Compound 10e]”: 50 µM. Consider `O=C(NCc1ccccc1)[C@@H](O)[C@H](O)C(=O)NCc1ccccc1` [Compound 1a, 1N,4N-dibenzyl-2,3-dihydroxy-(2S,3S)-butanediamide], for which, where the note is “read-out: IC50”, the IC50 was more than 100 µM. `CCOC(=O)[C@H](C)NC(=O)[C@@H](O)[C@H](O)C(=O)N[C@@H](C)C(=O)OCC` [Compound 3a, 1N,4N-di[1-carbetoxy-(1S)-ethyl]-2,3-dihydroxy-(2S,3S)-butanediamide]: the IC50 (read-out: IC50) was more than 100 µM. In the case of `CCOC(=O)[C@@H](NC(=O)[C@@H](O)[C@H](O)C(=O)N[C@H](C(=O)OCC)[C@@H](C)CC)[C@@H](C)CC` [Compound 3d, 1N,4N-di[1-carbetoxy-2-methyl-(1S,2S)-butyl]-2,3-dihydroxy-(2S,35)-butanediamide], the IC50 (read-out: IC50) was more than 100 µM. For `CC(=O)O[C@H](C(=O)NCc1ccccc1)[C@H](OC(C)=O)C(=O)NCc1ccccc1` [Compound 8a, 1N,4N-dibenzyl-2,3-diacetoxy-(2S,3S)-butanediamide], the IC50 (read-out: IC50) is more than 100 µM. As to `CC(O)C(C)O` (stereo not shown) [Compound 11b], the IC50 was more than 100 µM. Take `NNC(=O)[C@H](Cc1ccccc1)NC(=O)[C@@H](O)[C@H](O)C(=O)N[C@@H](Cc1ccccc1)C(=O)NN` [Compound 14e, 1N,4N-di[1-carbonylhydrazine-2-phenyl-(1S)-ethyl]-2,3-dihydroxy-(2S,3S)-butanediamide]: the IC50 (read-out: IC50) was more than 100 µM. With `O=C(NCc1ccccc1)[C@H](Cc1ccccc1)NC(=O)[C@@H](O)[C@H](O)C(=O)N[C@@H](Cc1ccccc1)C(=O)NCc1ccccc1` [Compound 15, 1N,4N-di[1-carbonylbenzylamine-2-phenyl-(1S)-ethyl]-2,3-dihydroxy-(2S,3S)-butanediamide], the IC50 (read-out: IC50) is more than 100 µM. Still for that read-out and setting: next, `CCOC(=O)[C@H](Cc1ccccc1)NC(=O)[C@H](OC(C)=O)[C@@H](OC(C)=O)C(=O)N[C@@H](Cc1ccccc1)C(=O)OCC` [Compound 18, 1N,4N-di[1-carbetoxy-2-phenyl-(1S)-ethyl]-2,3-diacetoxy-(2R,3R)-butanediamide]: more than 100 µM; `CCOC(=O)[C@H](Cc1ccccc1)NC(=O)[C@H](O)[C@@H](O)C(=O)N[C@@H](Cc1ccccc1)C(=O)OCC` [Compound 19, 1N,4N-di[1-carbetoxy-2-phenyl-(1S)-ethyl]-2,3-dihydroxy-(2R,3R)-butanediamide]: more than 100 µM. Regarding `CC(=O)O[C@@H](C(=O)NCc1ccccc1)[C@@H](OC(C)=O)C(=O)NCc1ccccc1` [Compound 20, 1N,4N-dibenzyl-2,3-diacetoxy-(2R,3R)-butanediamide], the IC50 (read-out: IC50) was more than 100 µM. For the molecule `O=C(NCc1ccccc1)[C@H](O)[C@@H](O)C(=O)NCc1ccccc1` [Compound 21, 1N,4N-dibenzyl-2,3-dihydroxy-(2R,3R)-butanediamide], under “read-out: IC50”, the IC50 was more than 100 µM. As to `O[C@H](CNCc1ccccc1)[C@H](O)CNCc1ccccc1` [Compound 22, 1,4-di(benzylamine)-(2R,3R)-butane-2,3-diol], the IC50 (read-out: IC50) was more than 100 µM.

For the origin of these results see patent publication US20030158152A1, “Protease inhibitors and their pharmaceutical uses” (priority 2000, published 2003).
